Assay results as given in US8835422B2, “Substituted imidazoheterocycle derivatives” (Cara Therapeutics, Inc., priority 2008, dated 2014).

Key:
[1] = molecular target: T1, human CB2 receptor (hCB2) (Homo sapiens, UniProt P34972); assay: cAMP assay (LANCE TR-FRET) in CHO-K1 cells stably expressing hCB2; type: cell-based
T1 construct: host or cells: CHO-K1
Protocol: (§1) The ability of compounds to act as agonists or inverse agonists at human CB2 and CB1 receptors (hCB2, hCB1, respectively) and at the rat CB2 receptor (rCB2) was determined by measuring changes in intracellular cAMP levels. Chinese Hamster Ovary (CHO-K1) cell lines stably expressing hCB2 (Genebank: X74328) or hCB1 (Genebank: X54937) were purchased from Euroscreen (Gosselies, Belgium). The rat CB2 receptor was expressed from genomic DNA (provided by M. Abood, California Pacific Medical Center) in CHO-K1 cells from expression plasmid vector, pcDNA3.1.
(§2) Receptor mediated responses were determined by measuring changes in intracellular cAMP using LANCE cAMP detection kit (cat #AD0264, Perkin Elmer, Wellesley, Mass.) based on time-resolved fluorescence resonance energy transfer (TR-FRET).
(§3) On the day of the experiment, cells were spun at low speed for 5 min at room temperature. […] Cell clumps were removed by filtering through cell strainer 40 μm (BD Falcon, Discovery Labware, Bedford, Mass.) and diluted to 2×10^5 cells/mL. Antibody supplied with the LANCE cAMP immunoassay kit was then added according to the manufacturer's instructions. An aliquot of cells was taken for un-induced controls. […] Cells were then incubated for 30 min at room temperature prior to adding to Proxiplates containing test compounds (final DMSO concentration was less than 0.5%) with a Multidrop bulk dispenser, followed by a sixty minute incubation at room temperature. The response was stopped by addition of the detection mix supplied with the LANCE kit. The reagents were allowed to equilibrate for three hours prior to reading on an Envision multi-mode detector (Perkin-Elmer). TR-FRET was measured using a 330-380 nm excitation filter, a 665 nm emission filter, dichroic mirror 380 nm and Z=1 mm. Cyclic AMP concentrations in each well were back-calculated from a cAMP standard curve run concurrently during each assay. Each plate contained 16 wells of forskolin stimulated cells and 16 wells of forskolin plus CP55,940-treated cells. […] Concentrations of cAMP were expressed as a percent of the difference of these two groups of wells.

[2] = molecular target: human CB1 receptor (hCB1) (Homo sapiens, UniProt P21554); assay: cAMP assay (LANCE TR-FRET) in CHO-K1 cells stably expressing hCB1; type: cell-based
Sequence of human CB1 receptor (hCB1) (P21554 whole entry): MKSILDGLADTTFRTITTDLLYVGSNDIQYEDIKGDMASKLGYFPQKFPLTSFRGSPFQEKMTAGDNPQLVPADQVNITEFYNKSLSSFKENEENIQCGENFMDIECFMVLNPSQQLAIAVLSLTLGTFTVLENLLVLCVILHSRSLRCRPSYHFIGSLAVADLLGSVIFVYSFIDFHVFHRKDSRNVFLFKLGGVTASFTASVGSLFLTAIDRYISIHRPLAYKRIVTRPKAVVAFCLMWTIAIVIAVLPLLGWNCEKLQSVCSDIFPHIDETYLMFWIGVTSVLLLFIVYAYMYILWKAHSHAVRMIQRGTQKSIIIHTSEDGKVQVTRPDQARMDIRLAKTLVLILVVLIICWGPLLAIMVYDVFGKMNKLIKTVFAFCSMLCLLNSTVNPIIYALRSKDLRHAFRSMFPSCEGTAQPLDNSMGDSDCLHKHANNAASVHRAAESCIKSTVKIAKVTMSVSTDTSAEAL
Protocol: as §1, §2, §3

[3] = tested on: acetic acid-induced writhing; assay: Inhibition of acetic acid-induced writhing in mice; type: in vivo, Male ICR mice; details: dose of 10 mg/kg, subcutaneous, 30 min before acetic acid; writhes over 15 min
Excerpt: 12: 525-562; Ramabadran and Bansinath (1986) Pharm. Res. 3: 263-270]. Intraperitoneal administration of dilute acetic acid solution causes a writhing behavior in mice. A writhe is defined as a contraction of the abdominal muscles accompanied by an extension of the forelimbs and elongation of the body. The number of writhes observed in the presence and absence of test compounds is counted to determine the analgesic activity of the compounds.
Male ICR mice, 20-40 grams in weight, were weighed and placed in individual observation chambers (usually a 4000 ml beaker) with a fine layer of rodent bedding at the bottom. To determine the activity and potency of test compounds, different doses of the compound solution or vehicle were injected subcutaneously in the back of the neck 30 minutes prior to administration of acetic acid solution. After administration of the compound or vehicle control, mice were returned to their individual observation chambers awaiting the intraperitoneal administration of acetic acid solution. Thirty minutes later, 10 ml/kg of a 0.6% (v/v) acetic acid solution was then injected into the right lower quadrant of the abdomen. Immediately after the injection, the mouse was returned to its observation chamber and the recording of the number of writhes is begun immediately. The number of writhes was counted over a 15-min period starting from the time of acetic acid injection. Raw data were analyzed using a one-way ANOVA followed by Dunnett's post-tests.
For dose-response analysis, raw data were converted to % maximum possible effect (% MPE) using the formula: % MPE=((Wc−Wv)/(0−Wv))×100, where Wc is the number of writhes in compound-treated mice and Wv is the mean number of writhes in vehicle-treated mice. The dose which elicited 50% attenuation of hypersensitivity (ED50) was determined using linear regression analysis. (Tallarida & Murray, 1987).

T1 sequence (P34972 whole entry): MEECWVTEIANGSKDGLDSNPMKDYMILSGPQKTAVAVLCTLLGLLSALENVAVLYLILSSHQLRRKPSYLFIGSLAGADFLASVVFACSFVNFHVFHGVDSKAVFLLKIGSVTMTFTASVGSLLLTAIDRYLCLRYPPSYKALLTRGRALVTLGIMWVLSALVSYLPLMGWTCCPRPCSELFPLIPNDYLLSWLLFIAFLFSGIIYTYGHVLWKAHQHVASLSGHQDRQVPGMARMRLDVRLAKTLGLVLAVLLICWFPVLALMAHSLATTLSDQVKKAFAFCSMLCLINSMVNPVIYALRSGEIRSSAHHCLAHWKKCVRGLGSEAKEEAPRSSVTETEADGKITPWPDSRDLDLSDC

## CNC(=O)[C@@H](NC(=O)c1nc(-c2ccc(F)c(F)c2)n2c1CCOCC2)C(C)(C)C [Compound 1-9, (S)-3-(3,4-difluorophenyl)-N-(3,3-dimethyl-1-(methyl-amino)-1-oxobutan-2-yl)-5,6,8,9-tetrahydroimidazo[1,5-d][1,4]oxazepine-1-carboxamide]
[1]
  EC50: 0.1 to 10 nM
[2]
  EC50: 10 to 100 nM
[3]
  % maximum possible effect (% MPE), writhing: greater than fifty
